# According to the supplement of paper PMC11451515:
# Test system: SEM cells
# Test: cell viability relative to DMSO control; higher = less cytotoxic
# Conditions: 48 h
# Summary of the method: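 In 1536-well plates, 5 μl of leukemia cells were seeded per well: 500 cells/well for NOMO1 or SEM and 1000 cells/well for P12-Ichikawa. Each line had first been adapted for at least four passages in each medium. Library compounds in DMSO were pin-dosed at 11 threefold concentrations between 47 μM and 0.79 nM, and CellTiter-Glo One luminescence was read after 48 h at 37°C. Viability is a per-plate percentage relative to DMSO wells, with cell-free wells as background.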
# [1] = HPLM + 10% dialyzed FBS, 0.000781 µM
# [2] = HPLM + 10% dialyzed FBS, 0.00234 µM
# [3] = HPLM + 10% dialyzed FBS, 0.00702 µM
# [4] = HPLM + 10% dialyzed FBS, 0.0211 µM
# [5] = HPLM + 10% dialyzed FBS, 0.0632 µM
# [6] = HPLM + 10% dialyzed FBS, 0.19 µM
# [7] = HPLM + 10% dialyzed FBS, 0.569 µM
# [8] = HPLM + 10% dialyzed FBS, 1.71 µM
# [9] = HPLM + 10% dialyzed FBS, 5.12 µM
# [10] = HPLM + 10% dialyzed FBS, 15.4 µM
# [11] = HPLM + 10% dialyzed FBS, 46.1 µM
# [12] = RPMI 5 mM glucose + 10% FBS, 0.000781 µM
# [13] = RPMI 5 mM glucose + 10% FBS, 0.00234 µM
# [14] = RPMI 5 mM glucose + 10% FBS, 0.00702 µM
# [15] = RPMI 5 mM glucose + 10% FBS, 0.0211 µM
# [16] = RPMI 5 mM glucose + 10% FBS, 0.0632 µM
# [17] = RPMI 5 mM glucose + 10% FBS, 0.19 µM
# [18] = RPMI 5 mM glucose + 10% FBS, 0.569 µM
# [19] = RPMI 5 mM glucose + 10% FBS, 1.71 µM
# [20] = RPMI 5 mM glucose + 10% FBS, 5.12 µM
# [21] = RPMI 5 mM glucose + 10% FBS, 15.4 µM
# [22] = RPMI 5 mM glucose + 10% FBS, 46.1 µM
# [23] = RPMI 5 mM glucose + 10% dialyzed FBS, 0.000781 µM
# [24] = RPMI 5 mM glucose + 10% dialyzed FBS, 0.00234 µM
# [25] = RPMI 5 mM glucose + 10% dialyzed FBS, 0.00702 µM
# [26] = RPMI 5 mM glucose + 10% dialyzed FBS, 0.0211 µM
# [27] = RPMI 5 mM glucose + 10% dialyzed FBS, 0.0632 µM
# [28] = RPMI 5 mM glucose + 10% dialyzed FBS, 0.19 µM
# [29] = RPMI 5 mM glucose + 10% dialyzed FBS, 0.569 µM
# [30] = RPMI 5 mM glucose + 10% dialyzed FBS, 1.71 µM
# [31] = RPMI 5 mM glucose + 10% dialyzed FBS, 5.12 µM
# [32] = RPMI 5 mM glucose + 10% dialyzed FBS, 15.4 µM
# [33] = RPMI 5 mM glucose + 10% dialyzed FBS, 46.1 µM
SMILES,cell viability [1] [%],cell viability [2] [%],cell viability [3] [%],cell viability [4] [%],cell viability [5] [%],cell viability [6] [%],cell viability [7] [%],cell viability [8] [%],cell viability [9] [%],cell viability [10] [%],cell viability [11] [%],cell viability [12] [%],cell viability [13] [%],cell viability [14] [%],cell viability [15] [%],cell viability [16] [%],cell viability [17] [%],cell viability [18] [%],cell viability [19] [%],cell viability [20] [%],cell viability [21] [%],cell viability [22] [%],cell viability [23] [%],cell viability [24] [%],cell viability [25] [%],cell viability [26] [%],cell viability [27] [%],cell viability [28] [%],cell viability [29] [%],cell viability [30] [%],cell viability [31] [%],cell viability [32] [%],cell viability [33] [%]
NC(=O)c1ccc(-c2nc(-c3ccc4c(c3)OCO4)c(-c3ccccn3)[nH]2)cc1,123,116,128,25.6,130,121,124,125,128,129,122,93.4,85.5,98.2,9.45,89.5,86.8,92.1,93.7,102,86.3,66.9,108,123,110,18.9,120,111,128,131,123,134,102
CCc1cccc2c3c([nH]c12)C(CC)(CC(=O)O)OCC3 (centres undefined),105,90.9,105,112,101,120,114,108,103,47.2,103,83.6,37.6,85.4,96.2,98,87.6,105,102,105,40.7,91.9,94.2,93,102,107,112,103,102,110,105,34.7,89.4
C/C(=C\c1csc(C)n1)[C@@H]1C[C@@H]2O[C@]2(C)CCC[C@H](C)[C@H](O)[C@@H](C)C(=O)C(C)(C)[C@@H](O)CC(=O)O1,20.1,19.1,23,36.1,21,22,19.7,19.5,18.2,20.3,19.9,11.4,15.3,17.3,19.1,16.8,17.3,15.8,14.1,13.1,14.9,16.9,20.7,18.4,14,50.3,20.6,16.9,14.3,16.2,16.6,16.3,15.6
Oc1cc2c(cc1O)C1c3ccc(O)c(O)c3OCC1(O)C2 (centres undefined),83.5,32.7,89.1,88.3,100,102,93,100,99.7,100,90.6,83.8,36.7,99.2,102,91.3,105,101,88.8,108,101,87.7,92.7,34.3,102,91.7,86.4,107,92.9,106,104,111,89.5
Cn1cc(-c2cnn3c(N)c(Br)c([C@@H]4CCCNC4)nc23)cn1,75.1,93.2,94.8,86.4,93.6,93.6,71.3,29.1,19.4,16.7,8.44,87.4,99.9,101,94.4,91.8,93.6,96.6,63,22.4,16.3,7.88,76.8,90.9,84.6,88.9,83.6,94.2,69.5,31.3,13.2,12.8,7.35
COc1cccc(Nc2c(C(N)=O)cnc3c(C)cc([S+](=O)([O-])c4cccc(C(=O)N(C)C)c4)cc23)c1,119,113,134,130,114,128,144,126,128,134,126,124,123,123,136,141,137,142,134,138,137,119,123,130,119,129,150,142,158,146,135,128,118
O=P1(N(CCCl)CCCl)NCCCO1 (centres undefined),113,104,96.5,110,110,114,92.8,111,84.8,29.5,17.9,,,,,,,,,,,,96.6,95.6,98.6,119,99.7,102,109,84,80.5,20.2,11.4
CCCCOc1ccc(CC(=O)NO)cc1,107,115,105,125,101,102,109,91.3,101,76.4,51.8,116,99.5,109,116,97,113,114,104,109,108,46.5,107,122,108,116,98.7,115,109,113,107,102,39.9
COC(=O)Nc1ccc(-c2nc(N3CCOCC3)c3cnn(C4CCN(Cc5cccnc5)CC4)c3n2)cc1,86.4,98,99,92.5,93.5,57.9,46.6,50.9,21.4,10.6,7.36,119,98,85.5,99.9,75.4,54.2,33.3,35.9,4.31,2.26,3.9,125,128,112,105,89.9,67.8,43.7,40.3,6.29,3.11,4.53
O=C(C1CC1)N1CC[C@@H](Cn2c(-c3ccc(-c4ccc5occc5c4)cc3)nc3cnccc32)C1,94.6,91.1,106,108,98.8,107,115,108,104,121,102,73.9,89.5,99.9,97.9,108,101,99.9,110,101,103,85.9,113,102,101,111,112,119,129,121,108,114,108
O=C1CCC[C@@H]2[C@H]3CCC[N+]4([O-])CCC[C@@H](CN12)[C@@H]34 (some centres undefined),61.8,68.2,84.1,86.2,96.2,94,89.4,92.1,71.9,27.1,78.6,84.7,87.4,93.9,94.7,89.1,101,96.6,99.5,71.5,18.8,86.8,89.7,68.5,82.2,97.9,85.4,96.6,102,81.4,91.1,24,88.7
COc1ccc(C(=O)CC(=O)c2ccc(C(C)(C)C)cc2)cc1,70.8,73.2,75.9,66.4,69.1,78.2,75.8,76.1,80.8,93.5,68.3,100,94.4,101,93,99,88,98.5,95.1,110,106,89.9,91.7,96.1,101,105,100,104,117,92,111,90.8,115
CO[C@H]1/C=C/O[C@@]2(C)Oc3c(C)c(O)c4c(O)c(c(/C=N\N5CCN(C6CCCC6)CC5)c(O)c4c3C2=O)NC(=O)/C(C)=C\C=C\[C@H](C)[C@H](O)[C@@H](C)[C@@H](O)[C@@H](C)[C@H](OC(C)=O)[C@@H]1C,78.4,70.3,63.7,62.1,45.6,15,6.95,3.02,1.55,1.63,1.24,39.3,42.6,34.7,33.5,29.1,9.34,4.87,2.56,1.35,1.05,0.91,58,63.5,60.5,47.5,50.4,19.8,8.21,2.82,1.68,1.26,1.06
CNC(=O)c1ccc(N2C(=S)N(c3ccc(C#N)c(C(F)(F)F)c3)C(=O)C2(C)C)cc1F,87.9,96.9,42.8,113,105,113,112,109,117,121,105,71.3,74,9.73,74.8,73.9,81.9,86.3,72.2,90.1,76.1,64.1,87.7,99.6,31.2,116,109,111,104,110,104,110,87.9
CCCOc1ccc2[nH]c(NC(=O)OC)nc2c1,106,99.4,97.6,82.9,42.1,25.4,23,25.8,25.7,24.6,23,95.3,78.3,70,60,23.6,14.1,13.2,9.52,11.6,12.1,15.1,120,123,94.4,80.2,45.2,20.1,22.5,15.3,17.5,20.8,18.7
